Legend:
p1-promoter = test: RFP expression from the p1-promoter in various bacteria; assay type: cell-based, Three different gram-negative bacteria; settings: same plasmid in all strains (BBR origin of replication)
Text: All strains contain the same plasmid (BBR origin of replication).
The functionality of Eil-promoters is not restricted to E. coli and offers an expression platform in various host organisms. […] In addition to bacterial promoters, the eil operators can be used to control expression from phage promoters such as T7. […] RFP was expressed from a T7 promoter controlled either by an IPTG-inducible lac operator or an acridine orange-inducible eil operator. The chromosomal T7-RNA polymerase was expressed from a Lac-promoter in both cases (in E. coli BL21-DE3). In the future, T7 RNA-polymerase expression could also be controlled by an Eil-promoter. […] All strains contain the same plasmid (BBR origin of replication).

KmrR = test: RFP expression from an Eil-promoter regulated by EilR homologue KmrR; assay type: cell-based, Klebsiella BRL6-2; settings: in E. coli; eilO consensus operator
Text: (§1) The EilR homologues SmvR (from Salmonella typhimurium) and KmrR (from Klebsiella BRL6-2) regulate RFP expression from an Eil-promoter in E. coli. Like EilR, these repressors bind to the eilO consensus operator and are induced e.g. by crystal violet.

SmvR = test: RFP expression from an Eil-promoter regulated by EilR homologue SmvR; assay type: cell-based, Salmonella typhimurium; settings: in E. coli; eilO consensus operator
Text: as §1

Eil-promoter = test: Induction of Eil-promoter (EilR-regulated, reporter gene) by hydrophobic cations; assay type: cell-based, E. coli; settings: preliminary results for the leuco-form
Text: A series of EilR-regulated promoters have been identified by creating a library that contains an eil-operator and randomized core promoter sequences coupled to a reporter gene. […] Subsequent optimizations have led to several Eil-promoters with improved properties.
The Eil- or Qac-promoters are useful as tools for monitoring real time oxidative stress. […] An Eil-promoter or Qac-promoter coupled with a reporter gene can serve as a signal-amplifying sensor for real time in vivo oxidative stress, which could be useful to monitor and understand physiological stress reactions. Similarly, heme catalyzes the oxidation of the colorless leucocrystal violet to its purple cation by reducing hydrogen peroxide. This colorful radical reaction is utilized in forensics to uncover removed blood stains. Crystal violet induces Eil-biosensors at concentrations that are much lower than the eye can detect. Such a sensor could be a sensitive tool for blood detection in forensic analyses.
Numbers in brackets indicate the concentration applied for induction (in μM).

Structure (SMILES) | RFP expression from the p1-promoter on induction (p1-promoter) | induction of KmrR-regulated RFP expression from an Eil-promoter (KmrR) | induction of SmvR-regulated RFP expression from an Eil-promoter (SmvR) | induction of Eil-promoters (Eil-promoter)
CN(C)c1ccc2cc3ccc(N(C)C)cc3nc2c1 [acridine orange] | express RFP from the p1-promoter |  |  | 
CN(C)c1ccc(C(=C2C=CC(=[N+](C)C)C=C2)c2ccc(N(C)C)cc2)cc1 [crystal violet] |  | induced | induced | induces Eil-promoters at nanomolar concentrations
CN(C)c1ccc(C(c2ccc(N(C)C)cc2)c2ccc(N(C)C)cc2)cc1 [leucocrystal violet] |  |  |  | does not cause induction
